Source: PubChem BioAssay (NCI)
Where “and” joins values, the source holds several entries; their conditions need not be identical. Identical values can stand only once.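 Method: 48-hour compound exposure of cells in 96-well plates, five concentrations, linear interpolation of endpoints. Abbreviation: GI50, concentration required for 50% inhibition of growth. TGI is the concentration that stops growth completely.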

How the values were obtained:
Test in all cases: DTP human tumour cell line panel, 48 h
[1] = tested on: UO-31 renal
[2] = tested on: SF-295 CNS
[3] = tested on: MALME-3M melanoma
[4] = tested on: NCI-H522 lung
[5] = tested on: EKVX NSCLC
[6] = tested on: HCC-2998 colon
[7] = tested on: UACC-257 melanoma
[8] = tested on: K-562 leukemia
[9] = tested on: COLO 205 colon
[10] = tested on: IGROV1 ovarian

Structure (SMILES) | GI50 [1] | TGI [1] | GI50 [2] | TGI [2] | GI50 [3] | TGI [3] | GI50 [4] | TGI [4] | GI50 [5] | TGI [5] [µM] | GI50 [6] | TGI [6] | GI50 [7] | TGI [7] | GI50 [8] | TGI [8] | GI50 [9] | TGI [9] | GI50 [10] | TGI [10]
S=C(Nc1ccc(-c2nc3ccccc3s2)cc1)Nc1ccccn1 | 19.6 µM | > 68.9 µM | 24.5 µM | 66.3 µM | 28.6 µM | 73.9 µM | 24.7 µM | > 61.3 µM | 12.2 µM | > 50.1 | 21.9 µM | 60.2 µM | 31.8 µM | > 72 µM | 27.6 µM | > 100 µM | 18.9 µM | 42.3 µM | 29.8 µM | > 78.1 µM
COC(=O)c1c2c(c[n+]([O-])c1C)C(=O)C(NCc1ccccc1)=CC2=O | 1.25 µM | 2.58 µM | 0.885 µM | 2.15 µM | 0.127 µM | 0.294 µM | 0.31 µM | 1.57 µM | 1.06 µM | 2.56 | 0.604 µM | 2 µM | 0.257 µM | 0.734 µM | 0.529 µM |  | 0.312 µM | 0.984 µM | 0.368 µM | 1.49 µM
COC(=O)C1=C2C3=C(C(=O)c4ccccc4C3=O)N(Cc3ccccc3)C2(OC(C)=O)C=CC1=O (configuration not stated) | 18.2 µM | > 100 µM | 6.3 µM | 29.3 µM | 10.8 µM | 26.5 µM | 5.56 µM | > 100 µM | 23.6 µM | 79.9 | 4.67 µM | 47.4 µM | 29.6 µM | > 100 µM | 4.69 µM | > 100 µM | 26.8 µM | > 100 µM | 16.5 µM | > 100 µM
COc1ccc(C2=C(Br)C(=O)OC2)cc1Cl | 39.6 µM | > 100 µM | 34 µM | 98.4 µM | 37.3 µM | > 78.3 µM | 37.8 µM | > 100 µM | 16.7 µM | 71.4 | 14.9 µM | 38.2 µM | 21 µM | 59.5 µM | 33.7 µM | > 86.2 µM | 0.832 µM | > 30.9 µM | 45.9 µM | > 100 µM
COc1cc2c3c(n(CCCN=[N+]=[N-])c(=O)c2cc1OC)-c1ccc(N)cc1C3=O | 0.146 µM | 0.803 µM | 0.0835 µM | 1.51 µM | 0.804 µM | 4.63 µM | 0.133 µM | 0.983 µM | 1.09 µM | 8.55 | 0.258 µM | 0.856 µM | 0.431 µM | 1.49 µM | 0.177 µM |  | 0.4 µM | 1.23 µM | 0.153 µM | 0.637 µM
CCOC(=O)/C(=C/c1cc(OC)ccc1OC)CC(=O)O |  | > 100 µM |  | > 100 µM |  | > 31.6 µM |  | > 100 µM |  | > 100 |  | > 31.6 µM |  | > 100 µM |  | > 31.6 µM |  | > 100 µM |  | > 100 µM
OCC1OC(n2ccc3cnccc32)CC1O (configuration not stated) |  | > 100 µM |  | > 100 µM |  | > 100 µM |  | > 100 µM |  | > 100 |  | > 100 µM |  | > 100 µM |  | > 100 µM |  | > 100 µM |  | > 100 µM
CCN1CCN(CCNc2nccc(-c3c(-c4cccc(O)c4)nc4sccn34)n2)S1(=O)=O | 15.1 µM and 5.75 µM | 32.5 µM and 74 µM | 14.2 µM and 16.4 µM | 32.5 µM and 48.8 µM | 0.0775 µM and 0.118 µM | 0.42 µM and 0.785 µM | 7.65 µM and 4.27 µM | 29.8 µM and 31.2 µM | > 32.5 µM and 34.6 µM | > 100 | 32.1 µM and 29.4 µM | 32.5 µM and > 100 µM | 0.31 µM and 0.215 µM | 32.5 µM and 9.03 µM | 11.9 µM and 11.4 µM | 32.5 µM and > 100 µM | 0.296 µM and 0.336 µM | 32.5 µM and 15.9 µM | 11.9 µM and 5.5 µM | 32.5 µM and > 100 µM
COc1cccc(C2=NN(C(C)=O)C(c3cc(OC)c(OC)c(OC)c3)C2)c1 (configuration not stated) | 7.65 µM | > 100 µM | 0.576 µM | 3.98 µM | 2.47 µM | > 100 µM | 3.97 µM | > 66.3 µM | 4.96 µM | > 100 | 2.26 µM | 16 µM | > 100 µM | > 100 µM | 0.9 µM | > 84.5 µM | 3.35 µM | 12.3 µM | 4.08 µM | > 72.1 µM
CC(C)[C@@H]1NC(=O)[C@]2(C)CSC(=N2)c2csc(n2)CNC(=O)C[C@@H](/C=C/CCS)OC1=O | 0.605 µM | 6.5 µM | 0.0358 µM | 0.51 µM | 0.0295 µM | > 100 µM | 0.165 µM | 3.75 µM | 0.198 µM | > 100 | 0.089 µM | 0.442 µM | 0.0537 µM | 2.15 µM | 0.273 µM | > 100 µM | 0.228 µM | 0.709 µM | 0.119 µM | 2.77 µM
Oc1ccc(Cl)cc1Cc1cc(Cl)cc(Cc2cc(Cl)ccc2O)c1O |  | 10.3 µM |  | 7.36 µM |  | 5.56 µM |  | 3.32 µM |  | 7.19 |  | 2.79 µM |  | 5.18 µM |  | 10.3 µM |  | 3.25 µM |  | 13.5 µM
O=[N+]([O-])c1ccc(Oc2cccnc2)c([N+](=O)[O-])c1 | 3.07 µM | 16.8 µM | 18.6 µM | > 100 µM | 2.83 µM | 17.6 µM | 3.02 µM | 9.55 µM | 14.6 µM | 32.2 | 6.53 µM | 41.7 µM | 8.81 µM | 22.3 µM | 3.22 µM | > 100 µM | 2.35 µM | 4.39 µM | 3.95 µM | > 100 µM
Nc1cccc(-c2nc3sccn3c2-c2ccnc(NCCCNS(=O)(=O)c3ccc(C(F)(F)F)cc3)n2)c1 | 3.2 µM | 27.5 µM | 3.08 µM | 10.1 µM | 3.94 µM | 18 µM | 3.35 µM | 18.2 µM | 6.09 µM | 86.1 | 5.29 µM | 92 µM | 5.27 µM | 50.6 µM | 2.77 µM | > 100 µM | 3.32 µM | 13.1 µM | 3.75 µM | 23.4 µM
Cc1nc(NC(=O)COc2cccc(/C=C3\COc4ccccc4C3=O)c2)sc1C | 0.704 µM | 1.63 µM | 1.64 µM | 3.33 µM | 1.79 µM | 4.11 µM | 1.89 µM | 4.41 µM | 1.24 µM | 3.12 | 1.94 µM | 3.49 µM | 2.88 µM | 8.13 µM | 3.1 µM | > 100 µM | 1.96 µM | 3.88 µM | 0.43 µM | 0.902 µM
Cc1ccccc1NC(=O)N/C(N)=N/c1nc2ccccc2s1 | 1.3 µM | > 100 µM | 0.0292 µM | 1.17 µM | 0.0693 µM | > 100 µM | 0.0427 µM | > 100 µM |  | > 100 | 0.145 µM | > 100 µM | > 100 µM | > 100 µM | 0.0327 µM | > 100 µM | 0.0514 µM | 4.28 µM | 0.0796 µM | > 100 µM
CCNC(=O)Nc1ccc(-c2nc3c(c(N4CCOC[C@@H]4C)n2)CCN(C2COC2)C3)cc1 | 0.101 µM and 0.0801 µM | 2.39 µM and 1.45 µM | 0.158 µM and 0.166 µM | 1.43 µM and 1.84 µM | 0.0743 µM and 0.0825 µM | 1.6 µM and 1.2 µM | 0.181 µM and 0.159 µM | > 24.2 µM and 6.18 µM | 0.323 µM | > 9.65 | 0.748 µM and 0.398 µM | > 100 µM | 0.232 µM and 0.287 µM | 2.74 µM and 3.92 µM | 1.27 µM and 1.1 µM | > 100 µM | 0.289 µM and 0.268 µM | > 100 µM | 0.115 µM and 0.071 µM | 5.38 µM and 0.751 µM
CN(C)c1cc2c(Nc3ccc4nc(Cc5ccccc5)[nH]c4c3)ncnc2cn1 | 12.2 µM | > 25 µM | > 12.7 µM | > 18.9 µM | > 16.3 µM | > 25 µM | 10.9 µM | > 25 µM | 8.68 µM | > 25 | > 25 µM | > 25 µM | > 15.3 µM | > 25 µM | > 19.8 µM | > 25 µM | > 25 µM | > 25 µM | 9.21 µM | > 25 µM
CCCCCCCCCCCCCCCCCC(=O)[O][Sn]([CH2]CCC)([CH2]CCC)[CH2]CCC | 0.161 µM | 0.34 µM | 0.162 µM | 0.435 µM | 0.141 µM | 0.327 µM | 0.14 µM | 0.318 µM | 0.0713 µM | 0.297 | 0.139 µM | 0.279 µM | 0.144 µM | 0.293 µM | 0.142 µM | > 100 µM | 0.171 µM | 0.373 µM | 0.154 µM | 0.367 µM
O=[n+]1cnn([O-])c2ccccc21 |  | 94.4 µM |  | > 100 µM |  | 47.6 µM |  | 45.2 µM |  | 91.7 |  | > 100 µM |  | 37.1 µM |  | > 100 µM |  | 40.7 µM |  | 28.5 µM
CC1C(=O)CCC1C(Sc1ccccc1)(Sc1ccccc1)Sc1ccccc1 (configuration not stated) |  | 5.9 µM |  | > 100 µM |  | > 100 µM |  | 26.8 µM |  | > 100 |  | > 100 µM |  | > 100 µM |  | 80.5 µM |  | > 100 µM |  | 78.4 µM
